# US8299083B2, “PDE5 inhibitor compositions and methods for treating cardiac indications” (The Johns Hopkins University, priority 2004, dated 2012)
# pIC50: −log10 of the molar value. Values joined by “and” are separate entries in the source; they are usually repeats but may differ in a detail not shown here. Identical values can stand only once.
# Assays:
# [1] = test system: isolated adult murine myocytes; experiment: Isoproterenol-stimulated contraction of isolated adult cardiac myocytes; type: cell-based, mouse; settings: ODQ plus sildenafil plus ISO
# Procedure: Louis, Mo.) for 6-7 min. Ventricles were gently chopped, filtered (150μ mesh), centrifuged (500 RPM×1 min), and rinsed in Tyrode's solution with increasing calcium (final 1.8 mM Ca^2+). Cells were incubated with 5 μM Indo-1 AM (Molecular Probes), rinsed, and studied at 27° C. by field stimulation in an inverted fluorescence microscope (Diaphot 200; Nikon, Inc). Sarcomere length (IonOptix, MA) and whole cell calcium transients were measured.
# PKG-1 = PKG-1 activity in isolated adult myocytes; type: cell-based, mouse
# Procedure: After 10 min, cells were lysed and PKG-1 activity determined.
# [2] = human, cited from earlier work
# [3] = test system: total cGMP-esterase activity; experiment: cGMP-esterase (low Km cGMP phosphodiesterase) activity of heart and isolated myocytes; type: biochemical, mouse
# myocardial cGMP = experiment: Myocardial cyclic nucleotide levels; type: in vivo, mouse; settings: for whole myocardial cGMP: acute intravenous administration
# Excerpt: Hearts were washed in ice-cold PBS, homogenized in 6% trichloroacetic acid, centrifuged and extracted with water-saturated ether. The aqueous layer was transferred, vacuum dried, and the pellet resuspended in sodium acetate buffer for cAMP and cGMP enzyme immunoassay (Amersham Pharmacia Biotech, Buckinghamshire, UK).
# [4] = test system: C57bl6 mice, isoproterenol-stimulated heart; experiment: Acute isoproterenol-stimulated contractility in intact mice (pressure-volume relations); type: in vivo, mouse; settings: acute intravenous administration
# Procedure: Isoproterenol (ISO: 20 ng/kg/minutes i.v.×5 min) with or without PDE5A inhibitor was given to anesthetized intact mice, and in vivo heart function assessed by pressure-volume relations at a fixed atrial pacing rate of 600-650 min^−1. Data were measured at baseline, with ISO, re-baseline, PDE5A-inhibition, and PDE5A inhibition+ISO. The ISO-only response was highly reproducible.
# [5] = test system: C57BL/6 mice, pressure overload by transverse aortic constriction; experiment: In vivo cardiac hemodynamics by pressure-volume analysis, TAC mice; parameters: species or system mouse; settings: 3 wk TAC, compared with sildenafil results
# Procedure: (§1) Pressure overload was produced by transverse aortic constriction.
# Transthoracic two-dimensional guided M-mode echocardiography was performed in non-anesthetized mice. Measurements were done using an echocardiography system, the SEQUOIA C256 (Siemens, Munich, Del.) with the 15 MHz linear-array transducer. Intact heart hemodynamic analysis was performed as described^90. These studies employed a four-electrode pressure-volume catheter (model SPR-839, Millar Instruments) placed through the left ventricular apex in the open chest anesthetized animal and positioned along the longitudinal axis to record chamber volume by impedance and pressure by micromanometry.
# All hemodynamic data were recorded using custom developed software, digitizing signals at 2 KHz. End-diastolic and end-systolic volumes were the average of volumes measured during isovolumic contraction and relaxation, respectively. ESP was the pressure at maximal chamber elastance (P/V ratio)^1. EDP was the diastolic pressure at the lower right hand corner of the pressure-volume loop. Cardiac output was determined from a perivascular flow probe (Transonics, Ithica, N.Y.) placed around the thoracic aorta. Ea was equal to the ratio of end-systolic pressure divided by stroke volume. The volume catheter signal was calibrated for both gain and offset. Gain was determined by setting the catheter-derived cardiac output (equal to pressure-volume loop width times heart rate) to that obtained from the calibrated flow probe value. Offset was determined using the hypertonic saline method Ventricular power was equal to the instantaneous product of pressure times flow, and the peak power was divided by EDV to obtain the power index PMXI^79. […] The slope of this relation Ees was normalized by heart mass and expressed per gm heart mass. Msw was derived from the linear relation between stroke work and EDV from the same set of variably loaded cardiac cycles used to derive Eesn, and is another load-independent assessment of systolic contractile function^4. Tau was obtained from the model: P=Po+ae^−t/□ . . . fitting data during isovolumic relaxation. dP/dt was derived from a digital filter (5-point weighted slope). PFR/EDV was derived from the maximal first derivative of the volume signal during early diastole, divided by EDV.
# [6] = test system: C57BL/6 mice, pressure overload by transverse aortic constriction; experiment: TAC-induced cardiac hypertrophy, remodeling and fibrosis (heart weight/tibia length, histology); type: in vivo, mouse; settings: TAC mice, concurrent oral treatment
# Excerpt: TAC induced marked heart chamber and cellular hypertrophy (+100% by 3-weeks) that progressed to chamber dilation with reduced fractional shortening after 9 weeks. […] TAC induced a time-dependent increase in myocardial fibrosis and myocyte hypertrophy and both were suppressed by PDE5A inhibition (FIG. 1C, e.g. 67% reduction in fibrosis in 9-week hearts, p<0.0001).
# as §1
# Hearts were fixed with 10% formalin overnight, then embedded in paraffin, sectioned at 5 μm thickness and stained with PAS methenamine. Cardiomyocyte diameter and interstitial collagen fraction were determined using computer-assisted image analysis (Adobe Photoshop 5.0, NIH Image J), with the observer blinded as to tissue source. At least 4-5 different hearts, with five separate fields of cells (total 50-70 cells for each heart) were quantified for cellular analysis.
# purified PDE5A = purified PDE5A (Homo sapiens, UniProt O76074); settings: cited from earlier work
# ex vivo vascular rings = settings: cited from earlier work
# [7] = test system: C57bl6 mice, isoproterenol-induced hypertrophy; experiment: Chronic isoproterenol infusion (osmotic pump) cardiac hypertrophy; type: in vivo, mouse; settings: 2 weeks
# Procedure: Acute increases in cardiac chamber contractility were induced by isoproterenol infusion in control C57b16 mice. The increase in cardiac systolic function was assessed by in vivo pressure-volume relations (FIG. 11E), and is reflected by a widening of the loop and shift of the upper left corner to the left. […] This supports the myocyte effects at the intact heart level. Furthermore, if isoproterenol is infused chronically by means of an implanted osmotic mini-pump, the heart responds by increasing the cardiac mass (hypertrophy) and with some dilation. This is shown for a group of control C57b16 mice (FIGS. 12A and 12B).
# fetal gene expression = experiment: Cardiac fetal gene expression (RNA dot blot) in TAC hearts; type: in vivo, mouse; settings: 3 wk TAC
# Procedure: RNA samples were prepared from snap-frozen hearts using a ready-to-use reagent for the isolation of total RNA TRIZOL reagent (Life Technology, Gaithersburg, Md.) according to the manufacturer's protocol. RNA dot-blot analysis was performed using a published protocol with a set of oligonucleotide probes^59. Data are shown normalized to GAPDH measured for each respective sample.
# [8] = inhibitor combined with isoproterenol
smiles,measurement,setting,value
O=c1onc2cnc3ccccc3n12 [ODQ],blunting of ISO response by sildenafil when sGC is inhibited,[1],prevented
CN1CC(=O)N2[C@H](c3ccc4c(c3)OCO4)c3[nH]c4ccccc4c3C[C@@H]2C1=O [tadalafil],enhancement of PKG-1 activity,"PKG-1; basal conditions, inhibitor alone",~10%
same,rise in PKG-1 activity,PKG-1; [8],50% and 70%
same,rise in PKG-1 activity over ISO alone,PKG-1; [8],30%
same,time of peak plasma concentration post-dose,"[2]; in vivo, po",two
same,apparent oral clearance (CL/F),[2],2.48 L/h
same,mean elimination half-life,[2],about 17.5 h
same,proportion of total cGMP-esterase activity attributable to PDE5,[3]; 3 week TAC hearts,~60%
same,percent of total cGMP-esterase activity blocked by co-incubation,[3]; sham control hearts (baseline),approximately 30%
"CC[C@H](C)[C@@H]1NC(=O)[C@H](CCCNC(=N)N)NC(=O)[C@H](CC(=O)O)NC(=O)[C@H](CCSC)NC(=O)[C@H](CCCNC(=N)N)NC(=O)CNC(=O)CNC(=O)[C@H](Cc2ccccc2)NC(=O)[C@@H](NC(=O)[C@H](CO)NC(=O)[C@H](CO)NC(=O)[C@H](CCCNC(=N)N)NC(=O)[C@H](CCCNC(=N)N)NC(=O)[C@H](CC(C)C)NC(=O)[C@@H](N)CO)CSSC[C@@H](C(=O)N[C@@H](CC(N)=O)C(=O)N[C@@H](CO)C(=O)N[C@@H](Cc2ccccc2)C(=O)N[C@@H](CCCNC(=N)N)C(=O)N[C@@H](Cc2ccc(O)cc2)C(=O)O)NC(=O)CNC(=O)[C@H](CC(C)C)NC(=O)CNC(=O)[C@H](CO)NC(=O)[C@H](CCC(N)=O)NC(=O)[C@H](C)NC(=O)CNC1=O [ANP, atrial natriuretic peptide]",whole myocardial cGMP,myocardial cGMP,marked rise in myocardial cGMP
same,isoproterenol-stimulated contractility in intact heart,[4],had no effect on the ISO response in the intact heart
"CCCc1nn(C)c2c(NCc3ccc(OC)c(Cl)c3)nc(COCC(=O)O)nc12 [EMD 360527, [7-(3-Chloro-4-methoxy-benzylamino)-1-methyl-3-propyl-1H-pyrazolo[4,3-d]pyrimidin-5-ylmethoxy]-acetic acid]",cardiac function by pressure-volume analysis,[5],near identical physiologic results
same,total myocardial cGMP,"myocardial cGMP; TAC hearts, chronic co-treatment",slight decline
same,whole myocardial cGMP,myocardial cGMP,negligible effect
same,TAC-induced hypertrophy and chamber remodeling,[6],yielded identical findings
same,TAC-induced hypertrophy and chamber remodeling,[6]; listed as EMD360527,prevented the development of both cardiac hypertrophy and accompanying chamber dilation and remodeling
same,pIC50,purified PDE5A,~8.00
same,pIC50,ex vivo vascular rings,6.00
same,development of cardiac hypertrophy,[7],markedly inhibited the development of cardiac hypertrophy
same,fetal gene expression,fetal gene expression,reversed the TAC-induced rise in fetal gene expression
